Series [1] addresses central benzodiazepine receptor. Briefly: In vitro binding assay for central benzodiazepine receptors ([^3H]-Ro 15-1788, rat cortex membranes). As to conditions: rat cortex membrane / rat brain homogenates, [^3H]-Ro 15-1788 2 nM, 25° C., 45 minutes; read-out: IC50 (nM) CBR. Here is the method: In Vitro Binding Assays for Central Benzodiazepine Receptors
Male Sprague Dawley rats are sacrificed by CO2 administration followed by cervical dislocation. Cortex is removed and placed in 20 volumes of ice-cold buffer ([…] Tris-HCl, pH 7.4) and minced finely with scissors. After homogenising the preparation will a polytron (PCU Kinematica, Bioblock, Switzerland) with one 10-second burst at a setting of 6, the suspension is centrifuged at 20,000 g for 20 minutes at 4° C. The pellets are resuspended in the previous buffer with a dounce (manual homogeniser). After the second centrifugation, the pellet is suspended in a final buffer (50 nM Tris/HCl, 0.32M sucrose, pH 7.4) to yield an appropriate protein concentration. Protein measurements are made by Lowry's method using bovine serum albumin as standard.
Non-specific binding is determined by blocking with cold Flumazenil (20 μM). Incubation is terminated by rapid filtration through Whatman GF/B glass fiber. Each sample tube and filter is immediately washed with 3 aliquots of 5 mL ice-cold […] Tris/HCl at pH 7.4. Filters are counted with a β-scintillation counter (Packard) to measure the amount of bound radioactivity. Ki and IC50 are calculated by EBDA/Ligand, iterative non-linear least squares curve-fitting programs (G. A. McPherson, J. Pharmacol. Methods 14, 213-228 (1985)).

In series [2] the target is T1, peripheral benzodiazepine receptor (Rattus norvegicus, UniProt P16257). Put plainly: In vitro binding assay for peripheral benzodiazepine receptors ([^3H]-PK11195, rat kidney membranes). Details: diluted kidney membrane preparation; from tissue; host or cells: rat kidney membranes (Sprague Dawley). Here is the method: In Vitro Binding Assays for Peripheral Benzodiazepine Receptors
Male Sprague Dawley rats are sacrificed by CO2 administration followed by cervical dislocation. Kidneys are removed and placed in 20 volumes of ice-cold buffer ([…] Tris-HCl, pH 7.4) and minced finely with scissors. After homogenising the preparation with a polytron (PCU Kintematica, Bioblock, Switzerland) with one 10-second burst at a setting of 10, the suspension is centrifuged at 49,000 g for 15 minutes at 4° C. The pellets are resuspended in the previous buffer with a dounce (manual homogeniser) to yield an appropriate protein concentration. Protein measurements are made by Lowry's method using bovine serum albumin as standard.
Non-specific binding is determined by blocking with cold PK11195 (10 μM). Incubation is terminated by rapid filtration through Whatman GF/B glass fiber. Each sample tube and filter is immediately washed with 3 aliquots of 5 mL ice-cold […] Tris/HCl at pH 7.4. Filters are counted with a β-scintillation counter (Packard) to measure the amount of bound radioactivity. Ki and IC50 are calculated by EBDA/Ligand, iterative non-linear least squares curve-fitting programs.

The target in series [3] is T1, peripheral benzodiazepine receptor. Briefly: Pretreatment (blocking) of uptake of radiolabelled compounds in rats. The series is classed as in vivo. Details: high uptake in the tissues which have known PBR sites; from tissue; host or cells: living rats; organs with PBR sites. As to conditions: pretreatment with unlabelled substance (1 mg/kg).

Structures are written as SMILES.

By IC50 is commonly meant the concentration needed to halve the response being measured. By melting point is commonly meant the temperature, or range, at which the solid turns liquid.

For `CNC(=O)Cc1c(-c2ccc(F)cc2)nc2ccc(Cl)cn12` [B], the melting point fell in the range of 254 to 256 °C. Moreover, the IC50 in series [1] was found to be 5.9 nM. In series [2], the IC50 was > 1000 nM.

Molecule `CNC(=O)Cc1c(-c2ccc(Cl)cc2)nc2ccc(Br)cn12` [C] had a melting point of 298 to 300 °C. Also, the 50% inhibitory concentration (IC50) in series [1] is 15 nM. Also, in series [2], the IC50 amounted to 33 nM.

Turning to `NC(=O)Cc1c(-c2ccc(F)cc2)nc2ccc(Cl)cn12` [Comparative Example A], the melting point was in the range of 250 to 252 °C. The IC50 in series [1] stood at 170 nM. In series [2], the IC50 was found to be 3340 nM.

Consider `CN(C)C(=O)Cc1c(-c2ccc(Cl)cc2)nc2ccc(Br)cn12` [D], for which the melting point was 234 to 236 °C. In series [1], the IC50 is 56.5 nM. The molecule further showed a half-inhibitory concentration (IC50) in series [2] of 90 nM.

Take `CN1C(=O)CN=C(c2ccccc2)c2cc(Cl)ccc21` [Diazepam]: in series [3], the “effect of pretreatment on uptake of activity of the radiolabelled compounds in the tissues of interest” value (shortened to “effect of pretreatment”) was “only marginally”.

Turning to `CNC(=O)Cc1c(-c2ccc(I)cc2)nc2ccc(Cl)cn12` [Example 1, 6-chloro-2-(4′-iodophenyl)-imidazol[1,2-a]pyridine-3-(N-methyl)acetamide], the melting point lay in the range of 308 to 310 °C. In addition, the IC50 in series [1] was > 1000 nM. Further, the IC50 in series [2] is 0.99 nM.

For `CN(C)C(=O)Cc1c(-c2ccc(I)cc2)nc2ccc(Cl)cn12` [Example 2], the melting point fell in the range of 216 to 218 °C. Also, the IC50 in series [1] is 168 nM. The molecule also registered an IC50 in series [2] of 2.3 nM.

For `CCCN(C)C(=O)Cc1c(-c2ccc(I)cc2)nc2ccc(Cl)cn12` [Example 4, 6-chloro-2-(4′-iodophenyl)-imidazo[1,2-a]pyridine-3-(N-methyl, N-propyl)-acetamide], the melting point is 170 to 172 °C. For the same molecule, the IC50 in series [1] turned out to be 117 nM. This molecule came in with an IC50 in series [2] of 0.98 nM.

`CCCN(CCC)C(=O)Cc1c(-c2ccc(I)cc2)nc2ccc(Cl)cn12` [Example 5, 6-chloro-2-(4′-iodophenyl)-imidazo[1,2-a]pyridine-3-(N,N-dipropyl)-acetamide] came in with a melting point of 152 to 153 °C. For the same molecule, the half-maximal inhibitory concentration (IC50) in series [1] is > 1000 nM. The IC50 in series [2] came out at 3.91 nM.

Take `CCCCN(CCCC)C(=O)Cc1c(-c2ccc(I)cc2)nc2ccc(Cl)cn12` [Example 7, 6-chloro-2-(4′-iodophenyl)-imidazo[1,2-a]pyridine-3-(N,N-dibutyl)-acetamide]: the melting point was 250 to 252 °C. Moreover, the IC50 in series [1] was > 1000 nM. Moreover, in series [2], the IC50 came out at 177 nM.

As for `CCOC(=O)c1ncn2c1CN(C)C(=O)c1cc(F)ccc1-2` [Flumazenil], the “effect of pretreatment” value in series [3] is given as “only marginally”.

For `CCC(C)N(C)C(=O)c1cc2ccccc2c(-c2ccccc2Cl)n1` (stereo not drawn) [PK 11195, 1-(2-chlorophenyl)-N-methyl-N-(1-methylpropyl)-3-isoquinolinecarboxamide], in series [3], the “effect of pretreatment” value is “significantly reduced”.

The record behind these values is US6379649B1, “Imidazo(1,2-a)pyridines as peripheral benzodiazepine receptor binding agents” (Australian Nuclear Science & Technology Organisation, priority 1998, dated 2002).
